The source made the active and inactive calls. No cut-off for these calls is given here.

The target in experiment [1] is T1, mTORC1 (Homo sapiens) (UniProt P42345+Q8N122+Q9BVC4). The experiment can be described thus: Inhibition of mTORC1 in human LY7 cells assessed as reduction in c-Myc expression at 3 uM measured after 24 hrs in presence of bortezomib by Western blot analysis. The format is cell-based. In general terms: A western blot detects proteins with antibodies after separation by electrophoresis.
T1 sequence (Q8N122 whole entry, looked up, other chains not shown): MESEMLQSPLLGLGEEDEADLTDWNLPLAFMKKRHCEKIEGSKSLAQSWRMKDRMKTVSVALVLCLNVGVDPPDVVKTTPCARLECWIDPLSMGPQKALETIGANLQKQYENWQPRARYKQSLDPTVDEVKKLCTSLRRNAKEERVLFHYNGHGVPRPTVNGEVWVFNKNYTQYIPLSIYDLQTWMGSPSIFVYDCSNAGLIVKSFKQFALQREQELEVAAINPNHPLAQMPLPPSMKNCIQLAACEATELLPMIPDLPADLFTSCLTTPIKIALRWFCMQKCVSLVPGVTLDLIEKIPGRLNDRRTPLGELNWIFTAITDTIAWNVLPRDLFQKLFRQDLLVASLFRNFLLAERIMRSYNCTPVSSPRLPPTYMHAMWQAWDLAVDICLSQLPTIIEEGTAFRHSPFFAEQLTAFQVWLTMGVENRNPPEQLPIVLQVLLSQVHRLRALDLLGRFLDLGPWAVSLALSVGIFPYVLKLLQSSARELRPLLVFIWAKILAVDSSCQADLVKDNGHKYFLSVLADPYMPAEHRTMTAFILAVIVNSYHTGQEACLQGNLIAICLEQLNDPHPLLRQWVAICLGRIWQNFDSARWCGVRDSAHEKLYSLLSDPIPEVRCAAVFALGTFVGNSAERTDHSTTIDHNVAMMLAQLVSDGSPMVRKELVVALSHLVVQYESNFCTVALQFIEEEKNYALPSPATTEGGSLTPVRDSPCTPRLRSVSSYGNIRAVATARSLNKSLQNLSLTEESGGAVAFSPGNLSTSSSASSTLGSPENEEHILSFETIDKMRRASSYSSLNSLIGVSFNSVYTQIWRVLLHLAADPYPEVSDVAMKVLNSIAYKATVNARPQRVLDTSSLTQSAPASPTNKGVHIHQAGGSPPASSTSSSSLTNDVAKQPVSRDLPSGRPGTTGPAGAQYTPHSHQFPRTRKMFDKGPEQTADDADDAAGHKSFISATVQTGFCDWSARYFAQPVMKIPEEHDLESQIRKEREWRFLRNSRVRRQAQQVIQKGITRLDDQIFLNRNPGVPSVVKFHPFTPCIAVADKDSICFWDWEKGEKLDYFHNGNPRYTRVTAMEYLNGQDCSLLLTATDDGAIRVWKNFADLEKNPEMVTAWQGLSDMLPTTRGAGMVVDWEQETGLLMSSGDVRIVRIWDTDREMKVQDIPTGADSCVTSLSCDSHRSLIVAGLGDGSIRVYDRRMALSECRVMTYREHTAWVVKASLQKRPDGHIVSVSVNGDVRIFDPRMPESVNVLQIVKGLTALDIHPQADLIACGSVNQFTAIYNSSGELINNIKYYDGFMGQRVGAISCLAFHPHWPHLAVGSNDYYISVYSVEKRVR
T1 sequence (Q9BVC4 whole entry, looked up, other chains not shown): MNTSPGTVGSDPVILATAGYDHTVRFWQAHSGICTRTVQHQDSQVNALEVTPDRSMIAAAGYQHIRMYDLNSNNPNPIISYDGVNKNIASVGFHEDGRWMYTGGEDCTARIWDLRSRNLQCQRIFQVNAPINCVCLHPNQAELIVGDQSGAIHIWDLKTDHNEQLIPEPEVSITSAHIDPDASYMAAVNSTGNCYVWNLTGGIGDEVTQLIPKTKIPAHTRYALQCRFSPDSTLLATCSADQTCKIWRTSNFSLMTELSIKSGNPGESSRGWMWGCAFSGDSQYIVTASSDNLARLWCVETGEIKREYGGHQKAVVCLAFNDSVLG

Experiment [2] deals with T2, Casein kinase I isoform epsilon (Homo sapiens, UniProt P49674). Kind of experiment: Inhibition of recombinant human full-length N-terminal GST-tagged CK1epsilon expressed in baculovirus infected Sf9 insect cells at 50 uM using casein as substrate measured after 60 mins by ADP-glo kinase assay relative to control. For orientation: In ADP-Glo the light output rises with the ADP produced.
Target sequence in this assay (P49674 whole entry, looked up, canonical isoform): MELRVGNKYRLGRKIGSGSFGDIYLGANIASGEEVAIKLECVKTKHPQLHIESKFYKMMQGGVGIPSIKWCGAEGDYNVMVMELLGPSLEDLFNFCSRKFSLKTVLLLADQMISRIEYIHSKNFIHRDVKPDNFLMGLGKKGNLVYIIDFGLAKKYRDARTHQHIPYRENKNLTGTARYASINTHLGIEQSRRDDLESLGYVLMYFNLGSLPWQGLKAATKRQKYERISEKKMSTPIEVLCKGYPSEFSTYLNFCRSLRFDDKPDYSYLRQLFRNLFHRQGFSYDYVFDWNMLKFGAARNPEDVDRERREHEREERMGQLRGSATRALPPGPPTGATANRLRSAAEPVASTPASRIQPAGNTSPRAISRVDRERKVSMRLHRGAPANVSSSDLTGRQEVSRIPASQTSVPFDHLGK

Experiment [3] addresses T1, mTORC1 (Homo sapiens). Kind of experiment: Inhibition of mTORC1 in human LY7 cells assessed as reduction in c-Myc mRNA expression at 3 uM measured after 24 hrs in presence of bortezomib. Format: cell-based.
Experiment [4] has as its target T1, mTORC1 (Homo sapiens). Kind of experiment: Inhibition of mTORC1 in human SLL cells assessed as reduction in c-Myc expression at 5 uM measured after 24 hrs in presence of bortezomib by Western blot analysis. The format is cell-based.
For experiment [5], the target named is T2, Casein kinase I isoform epsilon. The experiment can be described thus: Inhibition of CK1epsilon in human LY7 cells assessed as reduction in CK1epsilon autophosphorylation at 25 uM preincubated for 1 hr followed by addition of PP2A inhibitor calyculin A and measured after 15 to 60 mins by Western blot analysis. Format: cell-based. The following applies: time lower 75.0 min, time upper […].
Target sequence in this assay (P49674 whole entry, looked up, canonical isoform): as above

Experiment [6] concerns the target Myc proto-oncogene protein (Homo sapiens) (UniProt P01106). Kind of experiment: Inhibition of c-Myc in human LY7 cells assessed as reduction in eIF4B expression at 3 uM incubated for 24 hrs in presence of bortezomib by Western blot analysis. Format: cell-based.
A short description of experiment [7]: Inhibition of PI3Kdelta/CK1epsilon in human OCILY7 cells transfected with c-myc-5'-UTR-luciferase construct assessed as reduction in c-myc translation at 15 uM incubated for 24 hrs by luciferase reporter gene assay relative to control. The following applies: OCI-Ly7. On the technique in general: In a reporter assay the amount or activity of a reporter protein is the signal.

In experiment [8] the target is T1, mTORC1 (Homo sapiens). Kind of experiment: Inhibition of mTORC1 in human OCILY7 cells transfected with empty vector assessed as reduction in endogenous c-Myc expression at 3 to 5 uM incubated for 24 hrs in presence of carfilzomib by Western blot analysis. The following applies: dose 3-5 µM. Format: cell-based.
In experiment [9] the target is T1, mTORC1 (Homo sapiens). Kind of experiment: Inhibition of mTORC1 in human LY7 cells assessed as reduction in c-Myc expression at 3 uM measured after 24 hrs in presence of carfilzomib by Western blot analysis. The format is cell-based.
The subject of the next experiment is OCILY7. The experiment can be described thus: Inhibition of PI3Kdelta/CK1epsilon in human OCILY7 cells transfected with an empty vector assessed as reduction in c-Myc expression at 7.5 to 25 uM measured after 24 hrs by Western blot analysis. The format is cell-based. The following applies: dose 7.5-25 µM.
Experiment [10] addresses T3, Phosphatidylinositol 4,5-bisphosphate 3-kinase catalytic subunit delta isoform (Homo sapiens) (UniProt O00329).
T3 sequence (whole entry): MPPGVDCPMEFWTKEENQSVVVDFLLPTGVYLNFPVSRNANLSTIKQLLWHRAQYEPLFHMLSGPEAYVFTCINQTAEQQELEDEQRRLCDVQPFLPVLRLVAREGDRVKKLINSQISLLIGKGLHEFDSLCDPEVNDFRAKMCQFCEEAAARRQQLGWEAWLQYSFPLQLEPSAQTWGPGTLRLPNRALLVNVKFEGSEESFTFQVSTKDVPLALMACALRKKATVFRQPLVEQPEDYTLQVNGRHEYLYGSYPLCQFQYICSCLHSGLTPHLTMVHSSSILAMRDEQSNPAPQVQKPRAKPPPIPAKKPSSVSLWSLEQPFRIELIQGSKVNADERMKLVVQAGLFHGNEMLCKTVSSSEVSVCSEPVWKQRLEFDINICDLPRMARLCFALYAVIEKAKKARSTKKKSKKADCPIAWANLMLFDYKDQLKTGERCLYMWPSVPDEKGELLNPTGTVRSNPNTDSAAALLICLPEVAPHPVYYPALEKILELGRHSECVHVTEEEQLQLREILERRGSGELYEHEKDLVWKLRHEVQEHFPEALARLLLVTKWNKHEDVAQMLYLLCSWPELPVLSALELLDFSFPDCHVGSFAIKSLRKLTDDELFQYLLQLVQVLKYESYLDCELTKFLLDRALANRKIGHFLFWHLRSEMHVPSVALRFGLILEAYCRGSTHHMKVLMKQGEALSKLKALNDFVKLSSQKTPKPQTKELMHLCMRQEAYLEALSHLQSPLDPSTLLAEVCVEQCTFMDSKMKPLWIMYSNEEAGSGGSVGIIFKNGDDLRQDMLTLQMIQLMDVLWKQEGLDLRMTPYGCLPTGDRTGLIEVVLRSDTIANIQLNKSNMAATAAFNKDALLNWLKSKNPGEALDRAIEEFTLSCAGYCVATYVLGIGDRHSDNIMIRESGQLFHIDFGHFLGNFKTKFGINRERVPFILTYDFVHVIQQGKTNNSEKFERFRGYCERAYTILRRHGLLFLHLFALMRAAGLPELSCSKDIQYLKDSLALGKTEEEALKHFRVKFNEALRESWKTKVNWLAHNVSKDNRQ
The experiment can be described thus: Inhibition of PI3Kdelta in human THP-1 cells assessed as reduction in AKT phosphorylation at S473 residue measured after 4 hrs. The format is cell-based. The following applies: dose 10-10000 nM.

Experiment [11] addresses T3, Phosphatidylinositol 4,5-bisphosphate 3-kinase catalytic subunit delta isoform (Homo sapiens). Kind of experiment: Inhibition of PI3Kdelta in human THP-1 cells assessed as reduction in AKT phosphorylation at S473 residue at 1 uM measured after 4 hrs relative to control. The format is cell-based.
Experiment [12] has the same target. The experiment can be described thus: Inhibition of PI3Kdelta in human DB cells assessed as reduction in AKT phosphorylation at S473 residue measured after 4 hrs. The format is cell-based. The following applies: dose 10-10000 nM.
For experiment [13] the target is unchanged. Kind of experiment: Inhibition of PI3Kdelta in human MOLT-4 cells assessed as reduction in AKT phosphorylation at S473 residue at 1 uM measured after 4 hrs relative to control. Format: cell-based.
In experiment [14] the target is T1, mTORC1 (Homo sapiens). The experiment can be described thus: Inhibition of mTORC1 in human PF-382 cells assessed as reduction in c-Myc expression at 5 uM measured after 24 hrs in presence of carfilzomib by Western blot analysis. Format: cell-based.
Experiment [15] concerns the target T1, mTORC1 (Homo sapiens). The experiment can be described thus: Inhibition of mTORC1 in human CLL cells assessed as reduction in 4E-BP1 phosphorylation at 5 uM measured after 24 hrs in presence of carfilzomib by Western blot analysis. The format is cell-based. The following applies: CLL cell.
The target of experiment [16] is T1, mTORC1 (Homo sapiens). The experiment can be described thus: Inhibition of mTORC1 in human LY7 cells assessed as reduction in c-Myc mRNA expression at 3 uM measured after 24 hrs in presence of carfilzomib. Format: cell-based.
The subject of the next experiment is LY7. The experiment can be described thus: Inhibition of PI3Kdelta/CK1epsilon in human LY7 cells assessed as reduction in 4E-BP1 phosphorylation at 25 uM incubated for 24 hrs by Western blot analysis. The format is cell-based.
Another experiment deals with OCI-Ly7. Kind of experiment: Cytotoxicity against human OCILY7 cells transfected with c-Myc-expressing plasmid (M+) assessed as reduction in cell viability at 3 to 5 uM incubated for 24 hrs in presence of carfilzomib by cell-titer glo assay. Format: functional, cell-based. The following applies: dose 3-5 µM.
In experiment [17] the target is T3, Phosphatidylinositol 4,5-bisphosphate 3-kinase catalytic subunit delta isoform (Homo sapiens). Kind of experiment: Inhibition of PI3Kdelta in human HL-60 cells assessed as reduction in AKT phosphorylation at S473 residue measured after 4 hrs. The format is cell-based. The following applies: dose 10-10000 nM.
The target is the same in experiment [18]. The experiment can be described thus: Inhibition of PI3Kdelta in human Jurkat cells assessed as reduction in AKT phosphorylation at S473 residue at 1 uM measured after 4 hrs relative to control. The format is cell-based.
The target in experiment [19] is T2, Casein kinase I isoform epsilon. The experiment can be described thus: Inhibition of recombinant human full-length N-terminal GST-tagged CK1epsilon expressed in baculovirus infected Sf9 insect cells using casein as substrate measured after 60 mins by ADP-glo kinase assay.
Target sequence in this assay (P49674 whole entry, canonical isoform): as the sequence (P49674 whole entry, looked up, canonical isoform) above

Myc proto-oncogene protein (Homo sapiens), sequence (P01106 whole entry): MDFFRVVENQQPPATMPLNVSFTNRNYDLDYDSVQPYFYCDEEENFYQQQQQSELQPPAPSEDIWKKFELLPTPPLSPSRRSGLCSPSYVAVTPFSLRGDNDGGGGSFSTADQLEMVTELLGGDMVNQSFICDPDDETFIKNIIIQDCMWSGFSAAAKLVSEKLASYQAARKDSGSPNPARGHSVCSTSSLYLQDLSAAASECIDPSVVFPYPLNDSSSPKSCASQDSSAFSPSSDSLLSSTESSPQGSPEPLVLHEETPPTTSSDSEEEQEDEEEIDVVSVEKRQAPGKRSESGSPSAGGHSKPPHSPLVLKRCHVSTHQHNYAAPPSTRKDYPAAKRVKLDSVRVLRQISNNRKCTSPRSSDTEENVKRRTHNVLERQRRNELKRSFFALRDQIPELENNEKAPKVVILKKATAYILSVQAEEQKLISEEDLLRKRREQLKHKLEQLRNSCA

By inhibition is commonly meant the drop in the measured response relative to a control, in per cent. Turning to `CC[C@H](Nc1ncnc2[nH]cnc12)c1nc2cccc(F)c2c(=O)n1-c1ccccc1`, the inhibition entry (at mTORC1 (Homo sapiens) [1]; on mTORC1 (Homo sapiens) [3]; at mTORC1 (Homo sapiens) [4]; in experiment [5]; in experiment [6]) was “inactive” each time. Moreover, in experiment [2], the inhibition is below 50%.

The term EC50 denotes the concentration that produces a half-maximal response. As to `CC(C)Oc1ccc(-c2nn([C@@H](C)c3oc4ccc(F)cc4c(=O)c3-c3cccc(F)c3)c3ncnc(N)c23)cc1F` [UMBRALISIB], the inhibition at 15 µM in experiment [7] is above 50%. Moreover, the inhibition entry on mTORC1 (Homo sapiens) [8], on mTORC1 (Homo sapiens) [9], in the experiment with OCILY7, at mTORC1 (Homo sapiens) [14], at mTORC1 (Homo sapiens) [15] and with LY7 was “Active” in each case. Besides, the inhibition entry was “Dose-Dependent Effect” in experiment [10]; 43% in experiment [11]; “Dose-Dependent Effect” in experiment [12]; 43% in experiment [13]; “Dose-Dependent Effect” in [17]; 43% in experiment [18]. Moreover, the inhibition entry at mTORC1 (Homo sapiens) [16] was “inactive”. In addition, the result in the experiment with OCI-Ly7 was inactive. In experiment [19], the 50% effective concentration (EC50) was determined as 6 µM.

The record behind these values is ChEMBL document CHEMBL5715954, “Silencing c-Myc translation as a therapeutic strategy through targeting PI3Kδ and CK1ε in hematological malignancies” (Blood, 2017).
